Experimental data: PubChem BioAssay (NCI)
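GI50 = concentration required for 50% inhibition of growth. TGI marks complete inhibition of growth.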

Legend:
Assay in all cases: growth of human tumour cells (NCI), 384-well format
[1] = system: DU-145 prostate
[2] = system: MCF7 breast
[3] = system: A549 NSCLC
[4] = system: HCT-116 colon
[5] = system: SR leukemia
[6] = system: EKVX NSCLC
[7] = system: HCT-15 colon
[8] = system: RPMI-8226 leukemia
[9] = system: SN12C renal
[10] = system: NCI/ADR-RES ovarian
[11] = system: HCC-2998 colon
[12] = system: HL-60(TB) leukemia
[13] = system: A498 renal
[14] = system: NCI-H226 lung
[15] = system: MDA-MB-231 breast
[16] = system: CAKI-1 renal
[17] = system: BT-549 breast
[18] = system: MALME-3M melanoma
[19] = system: M14 melanoma
[20] = system: NCI-H322M lung
[21] = system: SF-539 CNS
[22] = system: MOLT-4 leukemia
[23] = system: UACC-62 melanoma
[24] = system: SK-MEL-28 melanoma
[25] = system: OVCAR-4 ovarian
[26] = system: U251 glioblastoma
[27] = system: KM12 colon
[28] = system: SNB-75 CNS
[29] = system: SNB-19 CNS
[30] = system: TK-10 renal
[31] = system: HOP-62 NSCLC
[32] = system: NCI-H23 lung
[33] = system: SK-OV-3 ovarian
[34] = system: HS 578T breast
[35] = system: MDA-MB-435 melanoma
[36] = system: ACHN renal
[37] = system: MDA-MB-468 breast
[38] = system: OVCAR-3 ovarian
[39] = system: SF-268 CNS
[40] = system: SK-MEL-5 melanoma
[41] = system: NCI-H522 lung
[42] = system: COLO 205 colon
[43] = system: UACC-257 melanoma
[44] = system: IGROV1 ovarian
[45] = system: SF-295 CNS
[46] = system: NCI-H460 NSCLC

O=C(NC1CCNCC1)c1[nH]ncc1NC(=O)c1c(Cl)cccc1Cl
GI50 [1]: 260 nM
TGI [1]: 692 nM
GI50 [2]: 59 nM
TGI [2]: > 100000 nM
GI50 [3]: 388 nM
TGI [3]: > 100000 nM
GI50 [4]: 202 nM
TGI [4]: > 100000 nM
GI50 [5]: 18.5 nM
TGI [5]: 37.3 nM
GI50 [6]: 366 nM
TGI [6]: 1830 nM
GI50 [7]: 3520 nM
TGI [7]: 43500 nM
GI50 [8]: 200 nM
TGI [8]: 344 nM
GI50 [9]: 181 nM
TGI [9]: 395 nM
GI50 [10]: > 100000 nM
TGI [10]: > 100000 nM
GI50 [11]: 151 nM
TGI [11]: 360 nM
GI50 [12]: 105 nM
TGI [12]: 224 nM
GI50 [13]: 304 nM
TGI [13]: 879 nM
GI50 [14]: 205 nM
TGI [14]: 527 nM
GI50 [15]: 256 nM
TGI [15]: > 100000 nM
GI50 [16]: 371 nM
TGI [16]: > 100000 nM
GI50 [17]: 183 nM
TGI [17]: 377 nM
GI50 [18]: 182 nM
TGI [18]: 348 nM
GI50 [19]: 257 nM
TGI [19]: 619 nM
GI50 [20]: 197 nM
TGI [20]: 477 nM
GI50 [21]: 212 nM
TGI [21]: 454 nM
GI50 [22]: 200 nM
TGI [22]: 344 nM
GI50 [23]: 169 nM
TGI [23]: 369 nM
GI50 [24]: 187 nM
TGI [24]: 394 nM
GI50 [25]: 262 nM
TGI [25]: 560 nM
GI50 [26]: 268 nM
TGI [26]: 703 nM
GI50 [27]: 176 nM
TGI [27]: > 100000 nM
GI50 [28]: 194 nM
TGI [28]: 356 nM
GI50 [29]: 326 nM
TGI [29]: > 100000 nM
GI50 [30]: 528 nM
TGI [30]: 9380 nM
GI50 [31]: 212 nM
TGI [31]: 500 nM
GI50 [32]: 180 nM
TGI [32]: 345 nM
GI50 [33]: 362 nM
TGI [33]: > 100000 nM
GI50 [34]: 209 nM
TGI [34]: 477 nM
GI50 [35]: 191 nM
TGI [35]: 379 nM
GI50 [36]: 2360 nM
TGI [36]: 34900 nM
GI50 [37]: 157 nM
TGI [37]: 296 nM
GI50 [38]: 163 nM
TGI [38]: 347 nM
GI50 [39]: 186 nM
TGI [39]: 478 nM
GI50 [40]: 183 nM
TGI [40]: 337 nM
GI50 [41]: 202 nM
TGI [41]: 384 nM
GI50 [42]: 126 nM
TGI [42]: 391 nM
GI50 [43]: 246 nM
TGI [43]: 564 nM
GI50 [44]: 286 nM
TGI [44]: 809 nM
GI50 [45]: 352 nM
TGI [45]: > 100000 nM
GI50 [46]: 168 nM
TGI [46]: 379 nM
